According to PMC3672506, “A useful EGFR-TK ligand for tumor diagnosis with SPECT: development of radioiodinated 6-(3-morpholinopropoxy)-7-ethoxy-4-(3′-iodophenoxy)quinazoline” (Annals of Nuclear Medicine, 2013):
Where two headings read alike, the source gives them in different places.

Legend:
A431 tumor [1] = assay: Tumor uptake of radioiodinated ligands in A431 tumor-bearing mice; format: in vivo, balb/c nude mice; settings: for accumulation in tumors: i.v.
Experimental: A suspension of 1 × 10^7 A431 cells in 0.1 mL of medium was inoculated subcutaneously in male balb/c nude mice (4 weeks old, 20–25 g, n = 3). After approximately 2 weeks, when the solid tumor had grown to optimal size, the mice were used for tumor uptake studies. [^125I]6a–d (37 kBq, 74 TBq/mmol) in 0.1 mL of saline was injected intravenously into tumor-bearing mice via the lateral tail vein. At 1 or 24 h after administration, the animals were sacrificed. Samples of tumor were excised and weighed. Radioactivity was measured using a well-type NaI(Tl) scintillation gamma counter. The results were expressed in terms of percentage of injected dose per gram of tumor.

A431 tumor [2] = format: in vivo, balb/c nude mice; settings: for Blood radioactivity / Brain radioactivity / Heart radioactivity / Kidney radioactivity / Liver radioactivity / Lung radioactivity / Muscle radioactivity / Pancreas radioactivity / Spleen radioactivity / Stomach radioactivity / Tumor radioactivity: A-431 tumor-bearing mice, i.v.
Experimental: The animals were euthanized 1, 6, 12 or 24 h after injection of the radioligands (37 kBq, 74 TBq/mmol in 0.1 mL saline), and the distributions were studied as described above.
In particular, the radioactivity accumulated in the liver 24 h after injection was approximately 1/50 of the radioactivity 1 h after injection. Thus, tumor-to-organ ratios for [^125I]PYK 24 h after injection had desirable values (Fig. 3b: tumor to lung: 8.5, tumor to kidney: 4.3, tumor to liver: 3.0) for tumor diagnostic imaging.

[3] = A431 tumor-bearing mice, 24 h after injection

CCOc1cc2ncnc(Oc3cccc([125I])c3)c2cc1OCCCN1CCOCC1 [[^125I]PYK]
tumor accumulation relative to [125I]PHY (A431 tumor [1]; 1 h post injection): approximately 8 folds
retention in tumors (in words) (A431 tumor [1]; [3]): good retention
accumulation in tumors (A431 tumor [1]; A431 tumor-bearing mice, 1 h post injection): 4.37 ± 0.65 % ID/g tissue
accumulation in tumors (A431 tumor [1]; [3]): 1.53 ± 0.15 % ID/g tissue
liver radioactivity 24 h after injection relative to 1 h after injection (A431 tumor [2]; A431 tumor-bearing mice): approximately 1/50
tumor to kidney ratio (A431 tumor [2]; [3]): 4.3
tumor to liver ratio (A431 tumor [2]; [3]): 3.0
tumor to lung ratio (A431 tumor [2]; [3]): 8.5
tumor/blood ratio (A431 tumor [2]; [3]): 57.0
tumor/muscle ratio (A431 tumor [2]; [3]): 45.5
Blood radioactivity (A431 tumor [2]; 1 h after injection): 0.80 ± 0.14 % injected dose per gram
Brain radioactivity (A431 tumor [2]; 1 h after injection): 0.88 ± 0.07 % injected dose per gram
Heart radioactivity (A431 tumor [2]; 1 h after injection): 1.19 ± 0.17 % injected dose per gram
Kidney radioactivity (A431 tumor [2]; 1 h after injection): 7.40 ± 0.66 % injected dose per gram
Liver radioactivity (A431 tumor [2]; 1 h after injection): 27.0 ± 1.29 % injected dose per gram
Lung radioactivity (A431 tumor [2]; 1 h after injection): 4.14 ± 0.48 % injected dose per gram
Muscle radioactivity (A431 tumor [2]; 1 h after injection): 1.34 ± 0.21 % injected dose per gram
Pancreas radioactivity (A431 tumor [2]; 1 h after injection): 2.80 ± 0.19 % injected dose per gram
Spleen radioactivity (A431 tumor [2]; 1 h after injection): 2.14 ± 0.04 % injected dose per gram
Stomach radioactivity (A431 tumor [2]; 1 h after injection): 6.10 ± 2.08 % injected dose per gram
Tumor radioactivity (A431 tumor [2]; 1 h after injection): 4.37 ± 0.65 % injected dose per gram
Blood radioactivity (A431 tumor [2]; 6 h after injection): 0.20 ± 0.04 % injected dose per gram
Brain radioactivity (A431 tumor [2]; 6 h after injection): 0.17 ± 0.03 % injected dose per gram
Heart radioactivity (A431 tumor [2]; 6 h after injection): 0.50 ± 0.04 % injected dose per gram
Kidney radioactivity (A431 tumor [2]; 6 h after injection): 3.53 ± 0.72 % injected dose per gram
Liver radioactivity (A431 tumor [2]; 6 h after injection): 7.89 ± 1.45 % injected dose per gram
Lung radioactivity (A431 tumor [2]; 6 h after injection): 2.29 ± 0.69 % injected dose per gram
Muscle radioactivity (A431 tumor [2]; 6 h after injection): 0.39 ± 0.02 % injected dose per gram
Pancreas radioactivity (A431 tumor [2]; 6 h after injection): 1.59 ± 0.25 % injected dose per gram
Spleen radioactivity (A431 tumor [2]; 6 h after injection): 1.02 ± 0.18 % injected dose per gram
Stomach radioactivity (A431 tumor [2]; 6 h after injection): 1.23 ± 0.60 % injected dose per gram
Tumor radioactivity (A431 tumor [2]; 6 h after injection): 3.59 ± 0.73 % injected dose per gram
Blood radioactivity (A431 tumor [2]; 12 h after injection): 0.06 ± 0.01 % injected dose per gram
Brain radioactivity (A431 tumor [2]; 12 h after injection): 0.04 ± 0.01 % injected dose per gram
Heart radioactivity (A431 tumor [2]; 12 h after injection): 0.14 ± 0.02 % injected dose per gram
Kidney radioactivity (A431 tumor [2]; 12 h after injection): 1.06 ± 0.14 % injected dose per gram
Liver radioactivity (A431 tumor [2]; 12 h after injection): 1.55 ± 0.32 % injected dose per gram
Lung radioactivity (A431 tumor [2]; 12 h after injection): 0.61 ± 0.18 % injected dose per gram
Muscle radioactivity (A431 tumor [2]; 12 h after injection): 0.09 ± 0.02 % injected dose per gram
Pancreas radioactivity (A431 tumor [2]; 12 h after injection): 0.41 ± 0.06 % injected dose per gram
Spleen radioactivity (A431 tumor [2]; 12 h after injection): 0.21 ± 0.01 % injected dose per gram
Stomach radioactivity (A431 tumor [2]; 12 h after injection): 0.69 ± 0.51 % injected dose per gram
Tumor radioactivity (A431 tumor [2]; 12 h after injection): 1.72 ± 0.42 % injected dose per gram
Blood radioactivity (A431 tumor [2]; 24 h after injection): 0.03 ± 0.00 % injected dose per gram
Brain radioactivity (A431 tumor [2]; 24 h after injection): 0.02 ± 0.00 % injected dose per gram
Heart radioactivity (A431 tumor [2]; 24 h after injection): 0.05 ± 0.01 % injected dose per gram
Kidney radioactivity (A431 tumor [2]; 24 h after injection): 0.36 ± 0.04 % injected dose per gram
Liver radioactivity (A431 tumor [2]; 24 h after injection): 0.51 ± 0.35 % injected dose per gram
Lung radioactivity (A431 tumor [2]; 24 h after injection): 0.18 ± 0.07 % injected dose per gram
Muscle radioactivity (A431 tumor [2]; 24 h after injection): 0.03 ± 0.01 % injected dose per gram
Pancreas radioactivity (A431 tumor [2]; 24 h after injection): 0.14 ± 0.02 % injected dose per gram
Spleen radioactivity (A431 tumor [2]; 24 h after injection): 0.07 ± 0.03 % injected dose per gram
Stomach radioactivity (A431 tumor [2]; 24 h after injection): 0.38 ± 0.19 % injected dose per gram
Tumor radioactivity (A431 tumor [2]; 24 h after injection): 1.53 ± 0.15 % injected dose per gram
